# Source: PubChem BioAssay AID330 (DTP/NCI, 2004)
# “And” between values parts separate entries of the source, which are not always exact repeats. Equal entries are not always repeated. Toxic doses and inconclusive results are not listed.
# Tested on: P388 leukemia ip, CD2F1 mice, survival T/C
# Experiment: NCI In Vivo Anticancer Drug Screen. Data for tumor model P388 Leukemia (intraperitoneal) in CD2F1 (CDF1) mice
# Details: endpoint: median survival time, higher = longer survival
# In short: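 Mice carrying the transplanted tumor received test compound or vehicle. Survival was recorded in each group, and the value is the treated-group measurement divided by that of the vehicle-treated control group.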
# [1] = dose: 60.0 mg/kg/injection, schedule: Q01DX005 (ip), vehicle: saline with Tween-80
# [2] = dose: 120.0 mg/kg/injection, schedule: Q01DX005 (ip), vehicle: saline with Tween-80
# [3] = dose: 50.0 mg/kg/injection, schedule: Q01DX009 (ip), vehicle: Klucel (hydroxypropylcellulose) (HPC)
# [4] = dose: 50.0 mg/kg/injection, schedule: Q01DX009 (ip), vehicle: other
# [5] = dose: 25.0 mg/kg/injection, schedule: Q04DX003 (ip), vehicle: saline
# [6] = dose: 240.0 mg/kg/injection, schedule: Q01DX005 (ip), vehicle: saline with Tween-80
# [7] = dose: 60.0 mg/kg/injection, schedule: Q01DX005 (ip), vehicle: saline
# [8] = dose: 120.0 mg/kg/injection, schedule: Q01DX005 (ip), vehicle: saline
# [9] = dose: 240.0 mg/kg/injection, schedule: Q01DX005 (ip), vehicle: saline
compound,measurement,setting,value
Nc1ncnc2c1ncn2CC1OC(O)C(O)C1NC(=O)C(N)Cc1ccccc1 (centres undefined),T/C,"dose: 8.0 mg/kg/injection, schedule: Q01DX005 (ip), vehicle: saline",94 % of control
same,T/C,"dose: 16.0 mg/kg/injection, schedule: Q01DX005 (ip), vehicle: saline",106 % of control
same,T/C,"dose: 32.0 mg/kg/injection, schedule: Q01DX005 (ip), vehicle: saline",94 % of control
same,T/C,"dose: 64.0 mg/kg/injection, schedule: Q01DX005 (ip), vehicle: saline",101 % of control
same,T/C,"dose: 128.0 mg/kg/injection, schedule: Q01DX005 (ip), vehicle: saline",94 % of control
same,T/C,"dose: 256.0 mg/kg/injection, schedule: Q01DX005 (ip), vehicle: saline",97 % of control
CCOC1=C(C)Sc2ccccc2N=C1c1ccccc1,T/C,"dose: 100.0 mg/kg/injection, schedule: Q04DX002 (ip), vehicle: Klucel + Tween-80",99 % of control
same,T/C,"dose: 200.0 mg/kg/injection, schedule: Q04DX002 (ip), vehicle: Klucel + Tween-80",93 % of control
same,T/C,"dose: 400.0 mg/kg/injection, schedule: Q04DX002 (ip), vehicle: Klucel + Tween-80",98 % of control
Nc1nnc(-c2ccc(Nc3nc4ccccc4[nH]3)c([N+](=O)[O-])c2)s1,T/C,[1],98 % of control
same,T/C,[2],101 % of control
C=C1C(O)C2(O)OCC34C(CC5C(C)=CC(=O)C(O)C5(C)C23)OC(=O)C(OC(=O)C/C=C(\C)CCCCC)C14 (centres undefined),T/C,"dose: 2.0 mg/kg/injection, schedule: Q01DX005 (ip), vehicle: saline + alcohol",161 % of control
same,T/C,"dose: 4.0 mg/kg/injection, schedule: Q01DX005 (ip), vehicle: saline + alcohol",168 % of control and 169 % of control
Brc1ccc(Oc2ccc(Br)cc2)cc1,T/C,[3],100 % of control
same,T/C,"dose: 100.0 mg/kg/injection, schedule: Q01DX009 (ip), vehicle: Klucel (hydroxypropylcellulose) (HPC)",98 % of control
same,T/C,"dose: 200.0 mg/kg/injection, schedule: Q01DX009 (ip), vehicle: Klucel (hydroxypropylcellulose) (HPC)",92 % of control
CCOC(=O)C(CSC(c1ccccc1)(c1ccccc1)c1ccccc1)NC(=O)CCNC(=O)c1ccccc1 (centres undefined),T/C,"dose: 4.0 mg/kg/injection, schedule: Q01DX009 (ip), vehicle: other",96 % of control
same,T/C,"dose: 8.0 mg/kg/injection, schedule: Q01DX009 (ip), vehicle: other",112 % of control
same,T/C,"dose: 16.0 mg/kg/injection, schedule: Q01DX009 (ip), vehicle: other",101 % of control
same,T/C,"dose: 32.0 mg/kg/injection, schedule: Q01DX009 (ip), vehicle: other",96 % of control
same,T/C,[4],104 % of control
same,T/C,"dose: 64.0 mg/kg/injection, schedule: Q01DX009 (ip), vehicle: other",98 % of control
same,T/C,"dose: 100.0 mg/kg/injection, schedule: Q01DX009 (ip), vehicle: other",95 % of control
same,T/C,"dose: 200.0 mg/kg/injection, schedule: Q01DX009 (ip), vehicle: other",90 % of control
same,T/C,"dose: 400.0 mg/kg/injection, schedule: Q01DX009 (ip), vehicle: other",95 % of control
Cc1cc2nc3ccc(=[N+](C)C)cc-3sc2cc1N,T/C,[5],100 % of control and 108 % of control
same,T/C,"dose: 50.0 mg/kg/injection, schedule: Q04DX003 (ip), vehicle: saline",117 % of control and 91 % of control
same,T/C,"dose: 100.0 mg/kg/injection, schedule: Q04DX003 (ip), vehicle: saline",109 % of control and 123 % of control
c1ccc(-c2ncc3n(-c4ccccc4)cnn23)cc1,T/C,"dose: 100.0 mg/kg/injection, schedule: Q04DX002 (ip), vehicle: saline with Tween-80",95 % of control
same,T/C,"dose: 200.0 mg/kg/injection, schedule: Q04DX002 (ip), vehicle: saline with Tween-80",86 % of control
same,T/C,"dose: 400.0 mg/kg/injection, schedule: Q04DX002 (ip), vehicle: saline with Tween-80",89 % of control
CCOC(=O)Cc1cc(=O)oc2c(CN3CCN(c4ccc(C)cc4)CC3)c(O)ccc12,T/C,[1],100 % of control
same,T/C,[2],87 % of control
same,T/C,[6],99 % of control
CCN(CC)CCSCCCNc1cc(C)nc2c1ccc1c2ccc2c(NCCCSCCN(CC)CC)cc(C)nc21,T/C,"dose: 1.56 mg/kg/injection, schedule: Q01DX009 (ip), vehicle: distilled water + Tween-80",100 % of control
same,T/C,"dose: 3.12 mg/kg/injection, schedule: Q01DX009 (ip), vehicle: distilled water + Tween-80",102 % of control
same,T/C,"dose: 6.25 mg/kg/injection, schedule: Q01DX009 (ip), vehicle: distilled water + Tween-80",104 % of control
same,T/C,"dose: 12.5 mg/kg/injection, schedule: Q01DX009 (ip), vehicle: distilled water + Tween-80",100 % of control
O=C1OCC[C@@H]1O,T/C,[7],101 % of control
same,T/C,[8],101 % of control
same,T/C,[9],97 % of control
CSc1nc2c(nnn2C2OC(CO)C(O)C(O)C2O)c(=O)n1C (centres undefined),T/C,[7],97 % of control
same,T/C,[8],97 % of control
same,T/C,[9],100 % of control
Cc1ccc(C)c2c1[nH]c1c(C)c3ccncc3c(C)c12,T/C,"dose: 100.0 mg/kg/injection, schedule: Q01DX001 (ip), vehicle: saline with Tween-80",100 % of control
same,T/C,"dose: 200.0 mg/kg/injection, schedule: Q01DX001 (ip), vehicle: saline with Tween-80",104 % of control
same,T/C,"dose: 400.0 mg/kg/injection, schedule: Q01DX001 (ip), vehicle: saline with Tween-80",120 % of control
NC(=O)N1C(=O)C=CC1=O,T/C,"dose: 50.0 mg/kg/injection, schedule: Q01DX005 (ip), vehicle: Klucel (hydroxypropylcellulose) (HPC)",92 % of control
same,T/C,"dose: 100.0 mg/kg/injection, schedule: Q01DX005 (ip), vehicle: Klucel (hydroxypropylcellulose) (HPC)",104 % of control
CCOC(=O)/C(C#N)=C(\CC)c1cc(Cl)cc(Cl)c1O,T/C,[1],100 % of control
same,T/C,[2],90 % of control
same,T/C,[6],96 % of control
Cc1ccc(S(=O)(=O)NN=c2cccccc2)cc1,T/C,"dose: 100.0 mg/kg/injection, schedule: Q01DX001 (ip), vehicle: DMSO",101 % of control
same,T/C,"dose: 200.0 mg/kg/injection, schedule: Q01DX001 (ip), vehicle: DMSO",97 % of control
C1OC2OCC1O2,T/C,"dose: 50.0 mg/kg/injection, schedule: Q01DX009 (ip), vehicle: saline with Tween-80",87 % of control
same,T/C,"dose: 100.0 mg/kg/injection, schedule: Q01DX009 (ip), vehicle: saline with Tween-80",93 % of control
same,T/C,"dose: 200.0 mg/kg/injection, schedule: Q01DX009 (ip), vehicle: saline with Tween-80",105 % of control
CCC1NC(C)(C)CC1=C(C)C (centres undefined),T/C,"dose: 6.25 mg/kg/injection, schedule: Q04DX003 (ip), vehicle: saline",105 % of control
same,T/C,"dose: 12.5 mg/kg/injection, schedule: Q04DX003 (ip), vehicle: saline",110 % of control
same,T/C,[5],110 % of control
Cc1ccc(CCN2CSC(=S)N(CCc3ccc(C)cc3)C2)cc1,T/C,"dose: 12.5 mg/kg/injection, schedule: Q01DX009 (ip), vehicle: Klucel (hydroxypropylcellulose) (HPC)",101 % of control
same,T/C,"dose: 25.0 mg/kg/injection, schedule: Q01DX009 (ip), vehicle: Klucel (hydroxypropylcellulose) (HPC)",96 % of control
same,T/C,[3],100 % of control
same,T/C,[4],96 % of control
CCCCCCCCCCCCCCCCCC[N+]1(CC)CCCC1,T/C,"dose: 6.25 mg/kg/injection, schedule: Q01DX009 (ip), vehicle: saline",97 % of control
same,T/C,"dose: 12.5 mg/kg/injection, schedule: Q01DX009 (ip), vehicle: saline",97 % of control
same,T/C,"dose: 25.0 mg/kg/injection, schedule: Q01DX009 (ip), vehicle: saline",97 % of control
CCOC(=O)C1CN2C(=O)CCC2C1=O (centres undefined),T/C,[7],104 % of control
same,T/C,[8],103 % of control
same,T/C,[9],103 % of control
COc1ccc2c(c1)CC1c3c(cc4c(c3-2)OCO4)CCN1C (centres undefined),T/C,"dose: 30.0 mg/kg/injection, schedule: Q01DX005 (ip), vehicle: Klucel (hydroxypropylcellulose) (HPC)",93 % of control
same,T/C,"dose: 60.0 mg/kg/injection, schedule: Q01DX005 (ip), vehicle: Klucel (hydroxypropylcellulose) (HPC)",90 % of control
same,T/C,"dose: 120.0 mg/kg/injection, schedule: Q01DX005 (ip), vehicle: Klucel (hydroxypropylcellulose) (HPC)",90 % of control
Oc1ccc(C2(c3ccc(O)c(Cl)c3)CC3CCC2C3)cc1Cl (centres undefined),T/C,"dose: 0.79 mg/kg/injection, schedule: Q01DX009 (ip), vehicle: saline with Tween-80",103 % of control and 111 % of control
same,T/C,"dose: 1.56 mg/kg/injection, schedule: Q01DX009 (ip), vehicle: saline with Tween-80",103 % of control and 116 % of control
same,T/C,"dose: 3.12 mg/kg/injection, schedule: Q01DX009 (ip), vehicle: saline with Tween-80",103 % of control and 105 % of control
same,T/C,"dose: 6.25 mg/kg/injection, schedule: Q01DX009 (ip), vehicle: saline with Tween-80",111 % of control and 94 % of control
same,T/C,"dose: 12.5 mg/kg/injection, schedule: Q01DX009 (ip), vehicle: saline with Tween-80",97 % of control
same,T/C,"dose: 25.0 mg/kg/injection, schedule: Q01DX009 (ip), vehicle: saline with Tween-80",98 % of control
